Columns and labels:
[1] = molecular target: Phosphatidylinositol 3-kinase catalytic subunit type 3 (Homo sapiens) (UniProt Q8NEB9); test: Inhibition of VPS34 (unknown origin) assessed as residual activity at 1000 nM by KINOMEscan analysis relative to control
[2] = molecular target: Beta-adrenergic receptor kinase 1 (Homo sapiens) (UniProt P25098); test: Inhibition of GRK2 (unknown origin) assessed as residual activity at 1000 nM by KINOMEscan analysis relative to control
[3] = molecular target: T1, Serine/threonine-protein kinase STK11 (Homo sapiens) (UniProt Q15831); test: Inhibition of LKB1 (unknown origin) assessed as residual activity at 100 nM by KINOMEscan analysis relative to control
T1 sequence (whole entry): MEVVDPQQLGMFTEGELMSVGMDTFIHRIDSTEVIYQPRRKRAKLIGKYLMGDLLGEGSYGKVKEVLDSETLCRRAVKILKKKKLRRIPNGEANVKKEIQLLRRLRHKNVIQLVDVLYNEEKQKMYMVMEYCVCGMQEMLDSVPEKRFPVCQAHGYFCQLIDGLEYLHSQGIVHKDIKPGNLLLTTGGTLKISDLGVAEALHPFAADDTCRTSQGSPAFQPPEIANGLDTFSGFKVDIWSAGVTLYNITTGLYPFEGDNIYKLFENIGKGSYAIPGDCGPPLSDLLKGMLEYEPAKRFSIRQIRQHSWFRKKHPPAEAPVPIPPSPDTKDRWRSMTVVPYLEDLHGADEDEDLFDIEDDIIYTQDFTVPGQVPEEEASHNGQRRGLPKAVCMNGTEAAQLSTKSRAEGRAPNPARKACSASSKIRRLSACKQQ

[4] = molecular target: T2, Inhibitor of nuclear factor kappa-B kinase subunit epsilon (Homo sapiens) (UniProt Q14164); test: Inhibition of IKK-epsilon (unknown origin) assessed as residual activity at 100 nM by KINOMEscan analysis relative to control
T2 sequence (whole entry): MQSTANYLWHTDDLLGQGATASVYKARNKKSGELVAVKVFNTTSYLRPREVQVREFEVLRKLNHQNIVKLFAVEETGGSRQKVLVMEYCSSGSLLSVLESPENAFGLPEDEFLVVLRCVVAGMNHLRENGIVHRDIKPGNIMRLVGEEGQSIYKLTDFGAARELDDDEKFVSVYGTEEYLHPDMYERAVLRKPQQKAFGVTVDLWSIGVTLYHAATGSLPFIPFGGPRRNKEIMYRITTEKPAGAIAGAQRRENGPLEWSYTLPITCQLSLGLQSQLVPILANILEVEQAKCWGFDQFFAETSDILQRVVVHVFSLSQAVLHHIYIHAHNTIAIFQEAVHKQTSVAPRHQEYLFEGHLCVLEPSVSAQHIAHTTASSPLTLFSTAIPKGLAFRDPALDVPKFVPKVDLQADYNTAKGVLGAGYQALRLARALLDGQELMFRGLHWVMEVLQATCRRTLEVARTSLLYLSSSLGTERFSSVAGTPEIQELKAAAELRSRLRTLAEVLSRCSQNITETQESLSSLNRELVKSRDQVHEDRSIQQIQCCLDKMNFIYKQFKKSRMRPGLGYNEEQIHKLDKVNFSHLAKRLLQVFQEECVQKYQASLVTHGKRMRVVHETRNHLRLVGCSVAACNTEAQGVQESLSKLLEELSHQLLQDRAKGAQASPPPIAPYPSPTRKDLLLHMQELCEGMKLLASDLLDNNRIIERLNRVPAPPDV

[5] = molecular target: TRAF2 and NCK-interacting protein kinase (Homo sapiens) (UniProt Q9UKE5); test: Inhibition of TNIK (unknown origin) assessed as residual activity at 100 nM by KINOMEscan analysis relative to control
[6] = molecular target: Mitogen-activated protein kinase 14 (Homo sapiens) (UniProt Q16539); test: Inhibition of p38-alpha (unknown origin) assessed as residual activity at 100 nM by KINOMEscan analysis relative to control
[7] = species: Homo sapiens; test: Inhibition of N-terminal GST-tagged recombinant human SOS1 L901K mutant (564 to 1049 residues) expressed in Escherichia coli assessed as reduction in KRAS G12C mutant activation at 10 uM by HTRF analysis relative to control
[8] = molecular target: Dual specificity mitogen-activated protein kinase kinase 2 (Homo sapiens) (UniProt P36507); test: Inhibition of MEK2 (unknown origin) assessed as residual activity at 100 nM by KINOMEscan analysis relative to control
[9] = molecular target: Serine/threonine-protein kinase OSR1 (Homo sapiens) (UniProt O95747); test: Inhibition of OSR1 (unknown origin) assessed as residual activity at 100 nM by KINOMEscan analysis relative to control
[10] = molecular target: Activated CDC42 kinase 1 (Homo sapiens) (UniProt Q07912); test: Inhibition of TNK2 (unknown origin) assessed as residual activity at 100 nM by KINOMEscan analysis relative to control
[11] = molecular target: Activin receptor type-2A (Homo sapiens) (UniProt P27037); test: Inhibition of ACVR2A (unknown origin) assessed as residual activity at 100 nM by KINOMEscan analysis relative to control
[12] = molecular target: Mitogen-activated protein kinase 3 (Homo sapiens) (UniProt P27361); test: Inhibition of ERK1 (unknown origin) assessed as residual activity at 100 nM by KINOMEscan analysis relative to control
[13] = molecular target: Epidermal growth factor receptor (Homo sapiens, UniProt P00533); test: Inhibition of EGFR (unknown origin) assessed as residual activity at 100 nM by KINOMEscan analysis relative to control
[14] = molecular target: Serine/threonine-protein kinase pim-3 (Homo sapiens) (UniProt Q86V86); test: Inhibition of PIM3 (unknown origin) assessed as residual activity at 100 nM by KINOMEscan analysis relative to control
[15] = species: Homo sapiens; test: Inhibition of JNK2 (unknown origin) assessed as residual activity at 100 nM by KINOMEscan analysis relative to control
[16] = molecular target: Macrophage-stimulating protein receptor (Homo sapiens) (UniProt Q04912); test: Inhibition of MST1R (unknown origin) assessed as residual activity at 100 nM by KINOMEscan analysis relative to control
Macrophage-stimulating protein receptor (Homo sapiens), sequence (Q04912 25-304 limits assumed): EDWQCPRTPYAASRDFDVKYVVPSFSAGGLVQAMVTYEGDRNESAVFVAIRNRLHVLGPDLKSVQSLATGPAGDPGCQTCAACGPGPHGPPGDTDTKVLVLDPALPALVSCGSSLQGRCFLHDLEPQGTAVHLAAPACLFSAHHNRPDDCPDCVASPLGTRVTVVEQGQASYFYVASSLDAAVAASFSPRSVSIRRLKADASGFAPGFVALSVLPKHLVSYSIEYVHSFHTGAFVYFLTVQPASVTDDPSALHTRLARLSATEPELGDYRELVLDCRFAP
Macrophage-stimulating protein receptor (Homo sapiens), sequence (Q04912 310-1400 limits assumed): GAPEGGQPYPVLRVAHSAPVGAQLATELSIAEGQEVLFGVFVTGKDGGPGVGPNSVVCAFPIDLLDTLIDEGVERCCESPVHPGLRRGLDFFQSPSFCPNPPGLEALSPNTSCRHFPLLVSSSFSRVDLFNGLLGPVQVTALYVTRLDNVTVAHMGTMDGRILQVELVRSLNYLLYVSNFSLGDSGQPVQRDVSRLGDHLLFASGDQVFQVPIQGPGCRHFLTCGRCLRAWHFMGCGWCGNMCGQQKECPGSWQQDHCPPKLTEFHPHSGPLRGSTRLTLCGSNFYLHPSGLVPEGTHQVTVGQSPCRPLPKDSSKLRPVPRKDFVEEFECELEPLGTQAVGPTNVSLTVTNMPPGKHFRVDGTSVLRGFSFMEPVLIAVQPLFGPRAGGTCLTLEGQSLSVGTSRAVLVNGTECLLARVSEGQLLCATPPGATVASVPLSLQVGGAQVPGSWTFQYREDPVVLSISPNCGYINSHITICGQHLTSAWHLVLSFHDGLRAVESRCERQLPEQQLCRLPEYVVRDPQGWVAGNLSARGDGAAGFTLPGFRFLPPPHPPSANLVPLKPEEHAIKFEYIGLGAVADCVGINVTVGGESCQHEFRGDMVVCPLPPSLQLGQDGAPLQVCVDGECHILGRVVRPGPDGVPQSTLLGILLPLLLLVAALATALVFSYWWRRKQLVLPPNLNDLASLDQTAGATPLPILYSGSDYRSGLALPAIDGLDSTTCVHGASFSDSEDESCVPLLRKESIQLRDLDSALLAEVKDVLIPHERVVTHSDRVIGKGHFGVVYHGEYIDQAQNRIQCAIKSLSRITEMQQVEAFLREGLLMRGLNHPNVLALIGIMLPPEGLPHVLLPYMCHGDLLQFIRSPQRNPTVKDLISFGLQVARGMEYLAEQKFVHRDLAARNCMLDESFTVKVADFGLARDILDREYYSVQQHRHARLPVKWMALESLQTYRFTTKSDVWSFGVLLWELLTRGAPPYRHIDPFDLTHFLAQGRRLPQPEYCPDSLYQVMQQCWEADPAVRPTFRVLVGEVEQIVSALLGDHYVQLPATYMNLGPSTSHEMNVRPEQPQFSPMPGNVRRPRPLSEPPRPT

Phosphatidylinositol 3-kinase catalytic subunit type 3 (Homo sapiens), sequence (Q8NEB9 whole entry): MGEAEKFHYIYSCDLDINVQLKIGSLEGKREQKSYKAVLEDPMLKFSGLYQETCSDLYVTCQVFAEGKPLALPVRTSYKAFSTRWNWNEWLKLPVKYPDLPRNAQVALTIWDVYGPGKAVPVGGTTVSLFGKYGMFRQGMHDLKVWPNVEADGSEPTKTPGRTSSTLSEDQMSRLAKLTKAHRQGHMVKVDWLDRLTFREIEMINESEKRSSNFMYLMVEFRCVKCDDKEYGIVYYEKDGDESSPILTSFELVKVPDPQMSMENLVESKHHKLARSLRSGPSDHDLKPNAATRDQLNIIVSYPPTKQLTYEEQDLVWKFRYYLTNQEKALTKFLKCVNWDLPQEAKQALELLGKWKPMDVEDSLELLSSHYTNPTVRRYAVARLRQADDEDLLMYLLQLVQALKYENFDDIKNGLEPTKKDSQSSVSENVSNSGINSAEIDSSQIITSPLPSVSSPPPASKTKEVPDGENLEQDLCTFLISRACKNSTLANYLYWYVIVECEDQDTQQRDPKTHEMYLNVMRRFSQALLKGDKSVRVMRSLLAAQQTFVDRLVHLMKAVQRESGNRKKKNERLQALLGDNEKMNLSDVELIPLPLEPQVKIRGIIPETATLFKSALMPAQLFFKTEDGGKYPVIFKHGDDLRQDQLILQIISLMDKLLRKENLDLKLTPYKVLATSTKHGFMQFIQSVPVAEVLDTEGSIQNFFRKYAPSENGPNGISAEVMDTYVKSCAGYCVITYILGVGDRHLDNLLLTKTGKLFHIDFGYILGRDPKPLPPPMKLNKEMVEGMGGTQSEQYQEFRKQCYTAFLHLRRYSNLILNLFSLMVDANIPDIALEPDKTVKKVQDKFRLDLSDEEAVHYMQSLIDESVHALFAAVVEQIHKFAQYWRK
Serine/threonine-protein kinase OSR1 (Homo sapiens), sequence (O95747 whole entry, looked up): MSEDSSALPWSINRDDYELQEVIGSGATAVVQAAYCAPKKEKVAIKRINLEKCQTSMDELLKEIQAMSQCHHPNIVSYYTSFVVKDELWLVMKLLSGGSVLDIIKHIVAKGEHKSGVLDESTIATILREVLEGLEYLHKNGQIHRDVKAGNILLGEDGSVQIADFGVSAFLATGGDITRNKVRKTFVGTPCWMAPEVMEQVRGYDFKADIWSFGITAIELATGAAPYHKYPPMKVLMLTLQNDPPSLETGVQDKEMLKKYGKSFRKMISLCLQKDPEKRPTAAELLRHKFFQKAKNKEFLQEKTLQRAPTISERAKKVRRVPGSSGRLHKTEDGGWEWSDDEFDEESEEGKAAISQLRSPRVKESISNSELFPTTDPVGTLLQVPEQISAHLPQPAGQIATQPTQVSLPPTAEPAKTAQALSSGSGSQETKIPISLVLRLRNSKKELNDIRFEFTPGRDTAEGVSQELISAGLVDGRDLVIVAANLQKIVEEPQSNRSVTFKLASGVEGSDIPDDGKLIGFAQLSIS
Epidermal growth factor receptor, sequence (P00533 whole entry): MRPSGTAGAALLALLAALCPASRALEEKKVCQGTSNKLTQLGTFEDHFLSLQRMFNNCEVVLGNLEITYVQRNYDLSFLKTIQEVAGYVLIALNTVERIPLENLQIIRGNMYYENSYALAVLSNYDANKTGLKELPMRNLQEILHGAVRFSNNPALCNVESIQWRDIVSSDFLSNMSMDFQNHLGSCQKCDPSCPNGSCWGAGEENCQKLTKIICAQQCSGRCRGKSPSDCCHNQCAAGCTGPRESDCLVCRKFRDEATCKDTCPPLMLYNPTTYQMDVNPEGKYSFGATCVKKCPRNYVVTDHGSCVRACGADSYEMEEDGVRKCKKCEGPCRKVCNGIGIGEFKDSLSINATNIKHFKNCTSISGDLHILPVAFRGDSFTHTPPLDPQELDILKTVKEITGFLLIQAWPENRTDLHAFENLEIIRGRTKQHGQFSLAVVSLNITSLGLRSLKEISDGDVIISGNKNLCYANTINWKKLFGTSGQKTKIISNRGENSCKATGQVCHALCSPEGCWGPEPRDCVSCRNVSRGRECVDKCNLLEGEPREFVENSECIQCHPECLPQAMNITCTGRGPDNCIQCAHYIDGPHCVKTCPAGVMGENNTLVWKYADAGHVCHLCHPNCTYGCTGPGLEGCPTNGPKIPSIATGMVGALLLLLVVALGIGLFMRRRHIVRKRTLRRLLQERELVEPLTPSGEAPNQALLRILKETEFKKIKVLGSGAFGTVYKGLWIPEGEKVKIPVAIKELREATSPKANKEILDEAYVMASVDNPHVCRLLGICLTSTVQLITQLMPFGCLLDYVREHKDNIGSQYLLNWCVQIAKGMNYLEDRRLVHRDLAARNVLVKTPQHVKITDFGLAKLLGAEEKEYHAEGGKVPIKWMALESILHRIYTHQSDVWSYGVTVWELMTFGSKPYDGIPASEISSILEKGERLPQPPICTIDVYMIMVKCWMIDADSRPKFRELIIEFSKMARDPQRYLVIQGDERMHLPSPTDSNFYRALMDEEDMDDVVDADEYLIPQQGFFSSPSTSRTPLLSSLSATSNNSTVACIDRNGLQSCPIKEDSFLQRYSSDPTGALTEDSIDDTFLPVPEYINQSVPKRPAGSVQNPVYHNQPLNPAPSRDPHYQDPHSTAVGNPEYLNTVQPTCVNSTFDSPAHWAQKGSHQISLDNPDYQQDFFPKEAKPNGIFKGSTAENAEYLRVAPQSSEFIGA
Mitogen-activated protein kinase 3 (Homo sapiens), sequence (P27361 whole entry): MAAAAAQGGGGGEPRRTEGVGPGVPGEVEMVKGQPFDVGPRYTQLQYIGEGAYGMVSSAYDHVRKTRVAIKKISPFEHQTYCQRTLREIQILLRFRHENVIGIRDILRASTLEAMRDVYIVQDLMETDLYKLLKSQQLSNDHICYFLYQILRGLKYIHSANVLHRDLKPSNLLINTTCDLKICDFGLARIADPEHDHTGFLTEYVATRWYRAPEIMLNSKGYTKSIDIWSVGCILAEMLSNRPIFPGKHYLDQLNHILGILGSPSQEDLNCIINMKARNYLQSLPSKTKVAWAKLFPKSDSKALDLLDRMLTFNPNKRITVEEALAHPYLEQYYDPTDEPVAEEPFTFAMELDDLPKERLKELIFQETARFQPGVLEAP

Q: With `COc1cc2nc(C)nc(N[C@H](C)c3cccc(-c4cn[nH]c4)c3)c2cc1OC` as the compound, how does the Activity [1] read?
A: 100%

Q: And the Activity [2]?
A: 62%

Q: `COc1cc2ncnc(N[C@H](C)c3cccc4ccccc34)c2cc1OC` was tested. Which Activity [3] did it give?
A: 100%

Q: And the Activity [4]?
A: 100%

Q: What about the Activity [5] of the same compound?
A: 100%

Q: What about the Activity [6] of the same compound?
A: 89%

Q: What about the inhibition [7] of the same compound?
A: 38%

Q: And the Activity [8]?
A: 90%

Q: And the Activity [9]?
A: 89%

Q: And the Activity [10]?
A: 100%

Q: And the Activity [11]?
A: 94%

Q: What about the Activity [12] of the same compound?
A: 91%

Q: And the Activity [13]?
A: 93%

Q: And the Activity [14]?
A: 87%

Q: What about the Activity [15] of the same compound?
A: 68%

Q: And the Activity [16]?
A: 100%

Source: ChEMBL document CHEMBL5678818, “Discovery of potent SOS1 inhibitors that block RAS activation via disruption of the RAS-SOS1 interaction” (Proc Natl Acad Sci U S A, 2019)
